Source: ChEMBL document CHEMBL1177804, “Synthesis and preliminary evaluation of neuroprotection of celastrol analogues in PC12 cells” (Bioorg Med Chem Lett, 2010)
Active and inactive are the calls of the source. The calls are words filed in the database; no cut-off is given here.

Columns and labels:
[1] = system: PC-12; test: Cytoprotective activity against t-BPH-induced cell damage in rat PC12 cells assessed as cell viability at 1.6 uM; format: functional, cell-based
[2] = Antitumor activity against mouse SW1 cells; format: functional, cell-based
[3] = system: PC-12; test: Neuroprotective activity in t-BHP-induced damage in rat PC12 cells assessed as induction of Hsp70 expression by Western blotting; format: functional, cell-based
[4] = system: PC-12; test: Cytoprotective activity in rat PC12 cells assessed as protection against t-BHP-induced cell damage at 0.4 uM; format: functional
[5] = species: Rattus norvegicus; test: Cytoprotective activity against H2O2-induced damage in rat RINm cells; format: functional, cell-based
[6] = system: LNCaP; test: Antitumor activity against human LNCAP cells; format: functional, cell-based
[7] = system: PC-12; test: Cytoprotective activity against t-BPH-induced cell damage in rat PC12 cells assessed as cell viability; format: functional, cell-based
[8] = system: PC-12; test: Cytoprotective activity against t-BPH-induced cell damage in rat PC12 cells assessed as cell viability at 0.1 uM; format: functional; conditions: read-out: Activity
[9] = system: PC-12; test: Cytoprotective activity against t-BPH-induced cell damage in rat PC12 cells assessed as cell viability at 0.8 uM; format: functional, cell-based

## CCCOC(=O)[C@]1(C)CC[C@]2(C)CC[C@]3(C)C4=CC=C5C(=CC(=O)C(O)=C5C)[C@]4(C)CC[C@@]3(C)[C@@H]2C1
[1]
  Activity: Active

## CC1=C(O)/C(=N/O)C=C2C1=CC=C1[C@@]2(C)CC[C@@]2(C)[C@@H]3C[C@](C)(C(=O)O)CC[C@]3(C)CC[C@]12C
[1]
  Activity: Active

## CC1=C(O)C(=O)C=C2C1=CC=C1[C@@]2(C)CC[C@@]2(C)[C@@H]3C[C@](C)(C(=O)OCc4ccccc4)CC[C@]3(C)CC[C@]12C
[2]
  EC50: 0.3 µM

## CC1=C(O)C(=O)C=C2C1=CC=C1[C@@]2(C)CC[C@@]2(C)[C@@H]3C[C@](C)(C(=O)N4CCN(C)CC4)CC[C@]3(C)CC[C@]12C
[1]
  Activity: Dose-dependent effect

## CC1=C(OC(=O)c2nc(C)c(C)nc2C)C(=O)C=C2C1=CC=C1[C@@]2(C)CC[C@@]2(C)[C@@H]3C[C@](C)(C(=O)O)CC[C@]3(C)CC[C@]12C
[3]
  Activity: Dose-dependent effect
[4]
  Activity: 76%

## CC1=C(OC(=O)CCCCC2CCSS2)C(=O)C=C2C1=CC=C1[C@@]2(C)CC[C@@]2(C)[C@@H]3C[C@](C)(C(=O)O)CC[C@]3(C)CC[C@]12C (some centres undefined)
[5]
  Activity: Active
[4]
  Activity: inactive

## COC(=O)[C@]1(C)CC[C@]2(C)CC[C@]3(C)C4=CC=C5C(=CC(=O)C(O)=C5C)[C@]4(C)CC[C@@]3(C)[C@@H]2C1 [PRISTIMERIN]
[2]
  EC50: < 0.1 µM

## CC1=C(O)C(=O)C=C2C1=CC=C1[C@@]2(C)CC[C@@]2(C)[C@@H]3C[C@](C)(C(=O)O)CC[C@]3(C)CC[C@]12C [CELASTROL]
[6]
  IC50: 2.5 µM
[1]
  Activity: Active
[7]
  IC50: 3.15 µM
[8]
  viability at 0.1 µM: 65%
[9]
  Activity: inactive
